# Data published in ChEMBL document CHEMBL1201862, “PubChem BioAssay data set” (2004).
# Active and inactive are the calls of the source.
# Experiments:
# [1] = target: T1, Tyrosine-protein phosphatase non-receptor type 7 (Homo sapiens, UniProt P35236); assay: HePTP tyrosine phosphatase activity blockers – biochemical, absorbance, leukemia target, primary screen (AID 521); type: functional
# T1 sequence (P35236 whole entry): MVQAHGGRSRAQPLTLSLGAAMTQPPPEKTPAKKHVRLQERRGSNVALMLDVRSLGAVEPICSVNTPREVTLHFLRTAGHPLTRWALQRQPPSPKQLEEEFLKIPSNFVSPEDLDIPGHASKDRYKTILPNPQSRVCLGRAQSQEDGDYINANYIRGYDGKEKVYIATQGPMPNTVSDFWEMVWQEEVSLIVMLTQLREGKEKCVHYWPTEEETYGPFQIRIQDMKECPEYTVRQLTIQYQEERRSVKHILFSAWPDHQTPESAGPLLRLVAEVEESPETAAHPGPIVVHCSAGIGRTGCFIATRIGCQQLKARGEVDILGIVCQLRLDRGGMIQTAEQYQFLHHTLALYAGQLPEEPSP
# [2] = target: Voltage-gated inwardly rectifying potassium channel KCNH2 (Homo sapiens, UniProt Q12809); assay: concentration-dependent hERG rescue from blockers – cell-based, thallium flux, dose response (AID 2121); type: ADME
# [3] = target: T2, Mannose-6-phosphate isomerase (Homo sapiens, UniProt P34949); assay: MPI inhibition at elevated mannose 6-phosphate – biochemical, fluorescence intensity, high mannose 6-phosphate, primary screen (AID 1220)
# T2 sequence (P34949 whole entry): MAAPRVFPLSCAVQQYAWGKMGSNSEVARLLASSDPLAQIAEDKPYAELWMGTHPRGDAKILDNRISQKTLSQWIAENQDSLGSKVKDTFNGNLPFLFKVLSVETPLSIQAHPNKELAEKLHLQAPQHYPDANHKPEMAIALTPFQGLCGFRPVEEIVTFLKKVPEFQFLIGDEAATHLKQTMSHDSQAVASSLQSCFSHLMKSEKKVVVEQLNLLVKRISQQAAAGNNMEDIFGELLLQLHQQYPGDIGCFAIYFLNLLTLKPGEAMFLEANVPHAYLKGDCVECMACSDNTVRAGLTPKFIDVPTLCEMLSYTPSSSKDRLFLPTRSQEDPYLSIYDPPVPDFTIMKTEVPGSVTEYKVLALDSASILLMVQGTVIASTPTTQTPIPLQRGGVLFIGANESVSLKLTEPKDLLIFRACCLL
# [4] = target: T3, Heat shock factor protein 1 (Mus musculus, UniProt P38532); assay: enhancement of HSF1-driven luciferase signal – cell-based, NIH3T3, luminescence, dose retest, confirmation (AID 435004); type: functional;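 note: stress induced by proteasome inhibitor MG132 added 30 min after compound; luciferase reporter driven by HSF1 response element in NIH3T3 cells; actives raise luminescence as potentiators of the MG132 stress response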
# T3 sequence (P38532 whole entry): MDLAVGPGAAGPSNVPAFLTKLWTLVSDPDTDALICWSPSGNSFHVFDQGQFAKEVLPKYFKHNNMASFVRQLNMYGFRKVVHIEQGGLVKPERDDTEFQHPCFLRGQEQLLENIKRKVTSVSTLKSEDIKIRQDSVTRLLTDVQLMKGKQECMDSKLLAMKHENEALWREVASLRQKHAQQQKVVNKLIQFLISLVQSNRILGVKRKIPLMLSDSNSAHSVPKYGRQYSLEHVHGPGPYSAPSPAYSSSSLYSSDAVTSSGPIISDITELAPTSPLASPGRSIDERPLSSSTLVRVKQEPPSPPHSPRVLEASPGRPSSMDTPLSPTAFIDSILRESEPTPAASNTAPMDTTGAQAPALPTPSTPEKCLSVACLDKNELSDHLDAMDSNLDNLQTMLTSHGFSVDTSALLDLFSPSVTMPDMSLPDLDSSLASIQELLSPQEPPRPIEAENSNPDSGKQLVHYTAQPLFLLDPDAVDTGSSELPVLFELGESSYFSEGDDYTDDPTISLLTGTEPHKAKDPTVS
# [5] = target: T4, Replicative DNA helicase DnaB (Mycobacterium tuberculosis, UniProt P9WMR3); assay: DnaB intein splicing inhibitors, dose response, biochemical, cell-free fluorescence (AID 449749); type: functional
# T4 sequence (P9WMR3 whole entry): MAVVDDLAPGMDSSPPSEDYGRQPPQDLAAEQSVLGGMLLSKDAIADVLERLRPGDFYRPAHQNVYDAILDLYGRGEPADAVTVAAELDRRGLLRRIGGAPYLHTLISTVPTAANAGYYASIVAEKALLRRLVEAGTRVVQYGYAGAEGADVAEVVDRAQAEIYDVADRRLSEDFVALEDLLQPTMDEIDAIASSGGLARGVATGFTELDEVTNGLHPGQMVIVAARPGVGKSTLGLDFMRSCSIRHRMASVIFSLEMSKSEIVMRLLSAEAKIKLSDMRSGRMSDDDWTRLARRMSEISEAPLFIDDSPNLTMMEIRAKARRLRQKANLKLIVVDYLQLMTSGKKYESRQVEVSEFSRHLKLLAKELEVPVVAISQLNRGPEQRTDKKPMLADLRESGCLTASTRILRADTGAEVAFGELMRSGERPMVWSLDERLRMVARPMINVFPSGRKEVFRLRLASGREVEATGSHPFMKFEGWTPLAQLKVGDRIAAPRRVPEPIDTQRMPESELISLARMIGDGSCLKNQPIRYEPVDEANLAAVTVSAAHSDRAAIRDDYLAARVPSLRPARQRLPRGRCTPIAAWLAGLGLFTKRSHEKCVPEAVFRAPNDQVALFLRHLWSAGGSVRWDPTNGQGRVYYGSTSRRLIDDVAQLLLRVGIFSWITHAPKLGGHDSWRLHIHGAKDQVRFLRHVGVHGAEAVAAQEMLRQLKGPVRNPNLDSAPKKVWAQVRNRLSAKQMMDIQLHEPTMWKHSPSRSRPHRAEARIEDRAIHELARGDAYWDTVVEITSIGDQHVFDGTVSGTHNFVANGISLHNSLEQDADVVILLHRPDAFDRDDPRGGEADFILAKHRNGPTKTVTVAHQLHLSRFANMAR
# [6] = system: Vero; assay: viability of Vero cells under compound – cytotoxicity control for flavivirus capping enzyme inhibitors (AID 588742); type: functional; settings: Chlorocebus sabaeus
# [7] = target: T5, Protein RecA (Mycobacterium tuberculosis, UniProt P9WHJ3); assay: Fluorescence Cell-Free Homogeneous Dose Retest to Identify Inhibitors of RecA-Intein Splicing Activity. [Related pubchem assays (depositor defined):AID2097, AID2223, AID489010, AID492950]; type: functional
# T5 sequence (P9WHJ3 whole entry): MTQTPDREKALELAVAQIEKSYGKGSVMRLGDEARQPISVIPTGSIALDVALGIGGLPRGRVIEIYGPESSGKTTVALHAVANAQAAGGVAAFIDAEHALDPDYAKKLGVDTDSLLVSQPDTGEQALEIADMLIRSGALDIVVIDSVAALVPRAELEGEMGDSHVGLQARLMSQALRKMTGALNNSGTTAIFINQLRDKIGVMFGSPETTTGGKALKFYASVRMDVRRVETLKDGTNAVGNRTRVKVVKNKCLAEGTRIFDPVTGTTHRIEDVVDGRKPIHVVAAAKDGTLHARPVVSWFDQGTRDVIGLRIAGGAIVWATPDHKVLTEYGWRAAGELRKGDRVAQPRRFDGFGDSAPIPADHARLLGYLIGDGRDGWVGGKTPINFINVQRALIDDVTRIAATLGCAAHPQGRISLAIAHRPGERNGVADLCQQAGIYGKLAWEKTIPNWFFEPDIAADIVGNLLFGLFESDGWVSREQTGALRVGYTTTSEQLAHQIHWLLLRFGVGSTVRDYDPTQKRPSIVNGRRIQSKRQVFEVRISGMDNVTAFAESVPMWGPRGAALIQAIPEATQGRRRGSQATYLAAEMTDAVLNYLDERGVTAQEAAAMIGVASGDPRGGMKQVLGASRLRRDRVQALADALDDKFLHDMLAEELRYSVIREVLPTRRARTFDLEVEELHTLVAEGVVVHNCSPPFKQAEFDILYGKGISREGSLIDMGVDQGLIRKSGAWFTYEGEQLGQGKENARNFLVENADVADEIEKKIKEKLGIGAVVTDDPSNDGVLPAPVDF
# [8] = target: Genome polyprotein (dengue virus type 2, UniProt P29990); assay: flavivirus cap methylation enzyme inhibition – biochemical, confirmation dose response, primary screen (AID 588689); type: functional
# [9] = target: T6, Rac GTPase-activating protein 1 (Homo sapiens, UniProt Q9H0H5); assay: blockers of MgcRacGAP-driven Rac1 GTP hydrolysis – biochemical, ADP Hunter fluorescence, primary and confirmatory, confirmation (AID 624330); type: functional
# T6 sequence (Q9H0H5 whole entry): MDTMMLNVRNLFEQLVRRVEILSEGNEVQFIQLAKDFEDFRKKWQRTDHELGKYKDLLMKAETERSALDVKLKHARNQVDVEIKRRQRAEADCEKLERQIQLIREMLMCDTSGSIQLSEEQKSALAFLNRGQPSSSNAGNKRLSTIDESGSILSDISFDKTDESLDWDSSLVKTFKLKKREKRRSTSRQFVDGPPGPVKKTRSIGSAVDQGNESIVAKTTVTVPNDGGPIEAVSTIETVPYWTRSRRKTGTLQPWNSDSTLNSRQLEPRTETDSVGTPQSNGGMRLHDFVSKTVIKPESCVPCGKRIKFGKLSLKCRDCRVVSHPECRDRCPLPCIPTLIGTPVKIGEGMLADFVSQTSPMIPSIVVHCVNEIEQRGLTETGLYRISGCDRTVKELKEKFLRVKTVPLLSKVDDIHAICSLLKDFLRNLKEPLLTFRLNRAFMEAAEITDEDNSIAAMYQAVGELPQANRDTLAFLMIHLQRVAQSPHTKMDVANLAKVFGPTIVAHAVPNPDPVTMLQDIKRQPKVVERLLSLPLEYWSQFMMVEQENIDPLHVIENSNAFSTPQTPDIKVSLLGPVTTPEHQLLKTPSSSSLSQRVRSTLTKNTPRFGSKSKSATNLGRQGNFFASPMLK
# [10] = target: Glyceraldehyde-3-phosphate dehydrogenase (Homo sapiens, UniProt P04406)
# [11] = target: T7, Bcl-2-related protein A1 (Mus musculus, UniProt Q07440); assay: small-molecule antagonists of Bfl-1/BH3 interaction – biochemical, TR-FRET, mouse Bfl-1, confirmation (AID 621);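 note: TR-FRET binding of GST-Bfl-1 to FITC-labelled Bid peptide via terbium antibody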
# T7 sequence (Q07440 whole entry): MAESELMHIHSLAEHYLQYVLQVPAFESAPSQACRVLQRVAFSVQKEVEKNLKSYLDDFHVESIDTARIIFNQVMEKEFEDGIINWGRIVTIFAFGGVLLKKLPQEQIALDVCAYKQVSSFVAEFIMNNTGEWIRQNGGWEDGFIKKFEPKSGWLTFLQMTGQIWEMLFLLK
# [12] = target: T7, Bcl-2-related protein A1; assay: Bfl-1 binding inhibitors, SAR follow-up, biochemical, fluorescence polarization (AID 1070)
# [13] = target: Fatty acid synthase (Homo sapiens, UniProt P49327); assay: inhibition of human FAS-TE enzyme activity – biochemical, kinetic fluorescence intensity, dose response (AID 624326); type: functional;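 note: rate of fluorescence rise from hydrolysis of a fluorogenic O-methyl fluorescein ester substrate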
# [14] = Trypanosoma cruzi growth suppression in host cells – NIH3T3 host cells, beta-gal luminescence, confirmation (AID 2044); type: functional, cell-based;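 note: intracellular parasites grown in NIH/3T3 mouse fibroblasts as host cells; luminescent beta-galactosidase reporter signal from transgenic T. cruzi replicating inside host cells; inhibitors lower the luminescence signal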
# [15] = NIH3T3 cell viability loss – ATP luminescence, mouse fibroblasts, counter-screen, dose response (AID 2010); type: functional, cell-based;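 note: cells exposed to compound for about 90 hours before reading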
# [16] = cells
# Voltage-gated inwardly rectifying potassium channel KCNH2, sequence (Q12809 whole entry): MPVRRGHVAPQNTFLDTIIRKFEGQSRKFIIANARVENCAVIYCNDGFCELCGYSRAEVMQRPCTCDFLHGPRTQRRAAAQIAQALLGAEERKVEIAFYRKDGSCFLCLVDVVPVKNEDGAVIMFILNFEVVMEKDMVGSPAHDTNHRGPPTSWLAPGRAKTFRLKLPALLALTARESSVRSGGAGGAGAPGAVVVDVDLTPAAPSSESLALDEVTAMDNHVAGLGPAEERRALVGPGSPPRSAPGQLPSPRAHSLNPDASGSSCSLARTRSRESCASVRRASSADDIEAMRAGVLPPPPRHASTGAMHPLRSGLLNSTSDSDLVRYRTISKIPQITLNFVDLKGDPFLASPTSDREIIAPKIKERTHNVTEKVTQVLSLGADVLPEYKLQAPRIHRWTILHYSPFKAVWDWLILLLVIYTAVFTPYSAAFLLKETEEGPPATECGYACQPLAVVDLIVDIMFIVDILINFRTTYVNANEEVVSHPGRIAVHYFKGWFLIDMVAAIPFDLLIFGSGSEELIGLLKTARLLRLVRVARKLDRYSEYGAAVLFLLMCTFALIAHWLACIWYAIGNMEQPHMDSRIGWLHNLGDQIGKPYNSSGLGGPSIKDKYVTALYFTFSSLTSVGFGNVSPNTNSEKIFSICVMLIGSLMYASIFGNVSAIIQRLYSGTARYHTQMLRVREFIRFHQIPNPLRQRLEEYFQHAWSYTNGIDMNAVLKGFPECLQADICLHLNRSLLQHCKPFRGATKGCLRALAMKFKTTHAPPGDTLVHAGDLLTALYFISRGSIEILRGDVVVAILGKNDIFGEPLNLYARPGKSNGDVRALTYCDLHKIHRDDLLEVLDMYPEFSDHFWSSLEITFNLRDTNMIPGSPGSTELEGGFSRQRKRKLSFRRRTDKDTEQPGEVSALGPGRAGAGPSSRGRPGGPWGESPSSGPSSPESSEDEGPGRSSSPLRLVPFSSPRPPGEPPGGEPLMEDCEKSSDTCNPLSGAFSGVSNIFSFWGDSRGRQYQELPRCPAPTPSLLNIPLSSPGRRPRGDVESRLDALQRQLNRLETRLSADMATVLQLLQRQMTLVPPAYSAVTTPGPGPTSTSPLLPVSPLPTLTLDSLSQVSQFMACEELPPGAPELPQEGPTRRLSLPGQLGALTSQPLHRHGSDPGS
# Genome polyprotein, sequence (P29990 2492-3391 limits assumed): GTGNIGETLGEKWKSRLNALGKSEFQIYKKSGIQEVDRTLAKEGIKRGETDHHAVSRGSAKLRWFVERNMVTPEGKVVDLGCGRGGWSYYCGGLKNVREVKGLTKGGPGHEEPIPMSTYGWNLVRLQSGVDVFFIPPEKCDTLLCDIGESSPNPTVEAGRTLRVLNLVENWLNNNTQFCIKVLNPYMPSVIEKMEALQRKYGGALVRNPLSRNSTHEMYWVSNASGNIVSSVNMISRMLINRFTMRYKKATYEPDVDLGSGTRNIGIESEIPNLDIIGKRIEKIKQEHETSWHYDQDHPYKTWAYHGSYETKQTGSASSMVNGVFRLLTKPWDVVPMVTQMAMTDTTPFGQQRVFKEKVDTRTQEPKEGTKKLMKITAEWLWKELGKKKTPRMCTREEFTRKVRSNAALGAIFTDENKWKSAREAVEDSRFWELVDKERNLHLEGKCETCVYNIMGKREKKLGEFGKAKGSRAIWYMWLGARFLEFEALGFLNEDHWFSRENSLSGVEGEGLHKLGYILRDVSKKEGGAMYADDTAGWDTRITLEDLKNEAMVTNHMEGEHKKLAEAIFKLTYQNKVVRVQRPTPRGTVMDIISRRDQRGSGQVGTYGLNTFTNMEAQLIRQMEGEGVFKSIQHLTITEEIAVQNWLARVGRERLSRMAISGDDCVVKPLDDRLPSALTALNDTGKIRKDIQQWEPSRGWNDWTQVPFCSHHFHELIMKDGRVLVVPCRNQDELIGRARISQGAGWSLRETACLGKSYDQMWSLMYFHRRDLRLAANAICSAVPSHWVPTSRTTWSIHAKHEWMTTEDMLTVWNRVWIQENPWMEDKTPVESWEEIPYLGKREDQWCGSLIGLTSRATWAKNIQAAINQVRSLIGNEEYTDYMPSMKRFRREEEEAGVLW
# Fatty acid synthase, sequence (P49327 whole entry): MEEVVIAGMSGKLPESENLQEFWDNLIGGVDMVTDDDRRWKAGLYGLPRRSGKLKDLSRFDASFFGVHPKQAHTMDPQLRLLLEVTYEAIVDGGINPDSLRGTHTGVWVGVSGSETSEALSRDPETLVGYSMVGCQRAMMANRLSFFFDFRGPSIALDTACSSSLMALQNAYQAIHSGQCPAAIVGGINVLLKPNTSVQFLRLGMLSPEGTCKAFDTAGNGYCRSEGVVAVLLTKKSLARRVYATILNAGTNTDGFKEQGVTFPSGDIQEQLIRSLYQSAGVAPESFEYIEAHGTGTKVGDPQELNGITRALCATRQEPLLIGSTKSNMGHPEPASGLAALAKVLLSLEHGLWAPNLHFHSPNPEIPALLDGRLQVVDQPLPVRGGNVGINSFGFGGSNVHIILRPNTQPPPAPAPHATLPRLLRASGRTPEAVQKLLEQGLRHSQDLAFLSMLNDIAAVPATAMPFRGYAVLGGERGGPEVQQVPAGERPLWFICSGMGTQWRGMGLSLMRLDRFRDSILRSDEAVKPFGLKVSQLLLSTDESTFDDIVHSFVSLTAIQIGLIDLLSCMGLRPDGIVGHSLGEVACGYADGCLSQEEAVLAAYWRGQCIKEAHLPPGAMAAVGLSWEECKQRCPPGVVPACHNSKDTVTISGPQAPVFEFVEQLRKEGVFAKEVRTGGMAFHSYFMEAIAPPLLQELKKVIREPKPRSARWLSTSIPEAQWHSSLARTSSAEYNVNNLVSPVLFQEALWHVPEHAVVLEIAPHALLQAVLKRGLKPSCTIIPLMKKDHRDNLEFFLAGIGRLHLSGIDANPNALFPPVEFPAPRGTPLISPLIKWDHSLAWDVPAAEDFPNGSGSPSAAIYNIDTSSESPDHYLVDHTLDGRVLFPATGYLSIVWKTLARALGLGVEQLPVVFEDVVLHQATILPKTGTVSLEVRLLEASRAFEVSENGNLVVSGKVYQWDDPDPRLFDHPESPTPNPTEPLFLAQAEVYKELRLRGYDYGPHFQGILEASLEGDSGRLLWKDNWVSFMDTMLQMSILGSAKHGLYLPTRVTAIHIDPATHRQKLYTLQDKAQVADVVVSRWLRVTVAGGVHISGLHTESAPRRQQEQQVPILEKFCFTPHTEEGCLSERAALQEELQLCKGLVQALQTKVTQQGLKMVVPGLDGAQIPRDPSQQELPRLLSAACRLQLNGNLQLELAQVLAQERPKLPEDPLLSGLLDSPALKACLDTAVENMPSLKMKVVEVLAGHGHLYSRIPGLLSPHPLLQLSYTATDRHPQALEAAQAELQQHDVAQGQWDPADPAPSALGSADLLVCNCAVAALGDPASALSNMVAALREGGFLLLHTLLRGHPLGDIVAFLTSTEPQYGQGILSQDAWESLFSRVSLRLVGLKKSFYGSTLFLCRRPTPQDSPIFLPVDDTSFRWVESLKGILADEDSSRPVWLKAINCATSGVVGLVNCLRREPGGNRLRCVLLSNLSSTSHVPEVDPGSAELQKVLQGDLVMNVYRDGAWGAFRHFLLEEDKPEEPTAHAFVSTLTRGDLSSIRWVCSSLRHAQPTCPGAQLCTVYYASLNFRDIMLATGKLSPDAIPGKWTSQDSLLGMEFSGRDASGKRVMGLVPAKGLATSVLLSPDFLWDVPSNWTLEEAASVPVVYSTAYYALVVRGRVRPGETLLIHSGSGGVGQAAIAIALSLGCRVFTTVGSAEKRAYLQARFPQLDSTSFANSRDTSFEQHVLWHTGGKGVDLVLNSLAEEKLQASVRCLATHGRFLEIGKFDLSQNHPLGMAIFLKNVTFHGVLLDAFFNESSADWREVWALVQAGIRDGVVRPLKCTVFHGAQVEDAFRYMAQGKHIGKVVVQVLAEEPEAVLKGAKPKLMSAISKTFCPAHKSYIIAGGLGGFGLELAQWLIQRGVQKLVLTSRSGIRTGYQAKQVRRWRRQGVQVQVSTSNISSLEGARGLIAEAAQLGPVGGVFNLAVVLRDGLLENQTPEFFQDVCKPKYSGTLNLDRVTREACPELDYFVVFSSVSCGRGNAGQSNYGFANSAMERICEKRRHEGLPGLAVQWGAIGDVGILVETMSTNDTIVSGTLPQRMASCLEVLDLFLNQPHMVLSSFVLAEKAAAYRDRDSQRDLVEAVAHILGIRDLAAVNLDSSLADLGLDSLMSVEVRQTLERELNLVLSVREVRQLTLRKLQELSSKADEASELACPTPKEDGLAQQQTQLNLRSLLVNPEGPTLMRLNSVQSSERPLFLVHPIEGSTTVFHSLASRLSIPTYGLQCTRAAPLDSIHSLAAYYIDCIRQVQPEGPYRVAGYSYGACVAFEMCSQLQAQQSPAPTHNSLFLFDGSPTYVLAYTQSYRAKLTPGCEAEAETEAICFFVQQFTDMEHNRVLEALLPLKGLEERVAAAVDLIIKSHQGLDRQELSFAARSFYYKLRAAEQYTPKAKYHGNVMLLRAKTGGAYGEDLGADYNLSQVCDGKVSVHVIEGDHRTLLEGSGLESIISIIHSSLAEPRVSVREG
# Glyceraldehyde-3-phosphate dehydrogenase, sequence (P04406 whole entry): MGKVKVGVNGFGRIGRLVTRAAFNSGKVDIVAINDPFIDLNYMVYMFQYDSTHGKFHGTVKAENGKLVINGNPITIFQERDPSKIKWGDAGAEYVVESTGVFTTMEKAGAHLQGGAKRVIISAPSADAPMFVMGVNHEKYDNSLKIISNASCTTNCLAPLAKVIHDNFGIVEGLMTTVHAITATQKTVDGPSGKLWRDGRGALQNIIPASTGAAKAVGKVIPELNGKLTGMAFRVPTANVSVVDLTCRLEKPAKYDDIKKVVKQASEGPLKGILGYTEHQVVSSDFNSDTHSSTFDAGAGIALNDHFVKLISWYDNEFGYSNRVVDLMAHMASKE
smiles,measurement,setting,value
CNC(=O)N(c1ccccc1)c1ccccc1,IC50,[1],> 100 µM (not active)
FC(F)(F)c1cnc2c(c1)nc(S)n2-c1ccc(Cl)cc1,EC50,[2],4.84 µM (active)
COc1ccc2c(c1)-c1nc(/N=C/c3c(O)ccc4ccccc34)sc1CC2,IC50,[3],13 µM (active)
same,EC50,[4],> 260 µM (inactive)
same,AC50,[5],40.8 µM (active)
same,CC50,[6],> 40 µM (active)
same,EC50,[7],> 380 µM (inconclusive)
same,IC50,[8],6.25 µM (active)
same,IC50,[9],22.2 µM (active)
O=C1C(Cl)=C(N2CCCC2)C(=O)N1c1ccc(Cl)c(Cl)c1,IC50,[10],> 100 µM (not active)
same,IC50,[11],> 100 µM (not active)
same,IC50,[12],> 100 µM (not active)
Cc1cccc(N2CCN(C(=O)CNC(=O)c3cccc([N+](=O)[O-])c3)CC2)c1C,EC50,[2],0.38 µM (active)
same,IC50,[13],1.51 µM (active)
Cc1ccsc1C(=O)C1CCCN(Cc2c(C)nn(C(C)C)c2C)C1 (configuration not stated),EC50,[14],< 0.1 µM (active)
same,EC50,[15],> 60 µM (not active)
same,EC50,[16],0.008 µM (active)
Cc1ccc(-n2nnc(-c3cnc4ccccc4c3)n2)cc1,IC50,[11],> 100 µM (not active)
same,IC50,[12],> 100 µM (not active)
CCOC(=O)N1CCN(S(=O)(=O)c2ccc(C(=O)N(CCN(C)C)c3nc4ccc(Cl)cc4s3)cc2)CC1,EC50,[14],< 0.1 µM (active)
same,EC50,[15],> 60 µM (not active)
same,EC50,[16],0.07 µM (active)
